Source: US20240207292A1, “BORONIC ACID COMPOUNDS, COMPOSITIONS AND METHODS” (Trustees of Tufts College, priority 2021, published 2024)
Values joined by “and” are separate entries in the source; they are usually repeats but may differ in a detail not shown here. Equal entries are not always repeated. Where two headings read alike, the source gives them in different places. Square brackets hold non-standard residues; d marks the D form. Peptide text beside a SMILES is read from it. * marks the point of attachment. X4 = O=C1CN2CCN3CC(=O)O[C]4(C3)CN(CC(=O)*)CCN3CC(=O)O[C](C2)(C3)[Ga]4[O]1; X2 = O=C(O)CN1CCCN(CC(=O)O)CCN(CC(=O)*)CCCN(CC(=O)O)CC1; boroPro = OB(O)[C@@H]1CCCN1*

What was measured:
Format in all cases: biochemical
[1] = biological target: recombinant human prolyl oligopeptidase (PREP) (Homo sapiens (Human), UniProt P48147); experiment: In vitro assay prolyl oligopeptidase IC50 (Example 21)
Chain of recombinant human prolyl oligopeptidase (PREP) (P48147 whole entry): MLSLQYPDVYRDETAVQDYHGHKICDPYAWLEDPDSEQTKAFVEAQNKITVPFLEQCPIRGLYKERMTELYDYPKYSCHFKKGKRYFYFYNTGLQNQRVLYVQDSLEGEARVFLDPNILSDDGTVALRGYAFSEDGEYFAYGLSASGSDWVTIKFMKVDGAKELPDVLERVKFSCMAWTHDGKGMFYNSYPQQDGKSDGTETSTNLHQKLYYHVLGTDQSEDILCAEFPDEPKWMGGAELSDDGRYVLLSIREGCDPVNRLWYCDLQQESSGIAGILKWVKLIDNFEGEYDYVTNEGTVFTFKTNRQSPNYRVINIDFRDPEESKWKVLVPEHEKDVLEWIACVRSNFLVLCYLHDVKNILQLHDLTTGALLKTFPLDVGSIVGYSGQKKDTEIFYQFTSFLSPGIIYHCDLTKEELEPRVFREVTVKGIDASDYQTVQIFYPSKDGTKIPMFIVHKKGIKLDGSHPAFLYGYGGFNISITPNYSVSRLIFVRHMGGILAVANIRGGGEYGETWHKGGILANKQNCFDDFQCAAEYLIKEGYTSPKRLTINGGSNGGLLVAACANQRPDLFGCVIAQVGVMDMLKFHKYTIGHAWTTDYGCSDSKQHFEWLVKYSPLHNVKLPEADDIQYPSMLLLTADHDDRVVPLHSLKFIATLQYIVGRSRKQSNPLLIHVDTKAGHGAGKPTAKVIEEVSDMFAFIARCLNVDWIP
Experimental: (§1) The purpose of this assay is to determine the IC50 of various inhibitors against recombinant human dipeptidyl peptidase IV (DPPIV), fibroblast activation protein (FAP) or prolyl oligopeptidase (PREP).
(§2) The assays are conducted in the following steps: • 1 Dissolve the compound in DMSO to a final concentration of 100 mM. From this, prepare a 1 mM stock at pH 7.5 in 50 mM Tris, 140 mM NaCl Buffer (FAP)/pH 7.5 in 25 mM Tris, 250 mM NaCl Buffer/[…]. • 2. Serial dilute (1:10) the 1 mM compound stocks prepared previously into the appropriate assay buffer (FAP: 50 mM Tris, 140 mM NaCl, pH 7.5/PREP: 25 mM Tris, 0.25 M NaCl, pH 7.5/DPPIV: 25 mM Tris, pH 8.0) to one row of a 96-well plate. • 3. […] Dilute the enzymes into their appropriate assay buffers. The final enzyme concentrations should be 0.1, 1.2, and 0.6 nM for DPPIV, FAP and PREP respectively. Add 180 μL to each well needed in columns 2-10. Column 1(A,B,C) should be prepared with 200 μl of appropriate assay buffer as control. Column 1(D,E,F,G,H) should be prepared with 20 μl of appropriate assay buffer and 180 ul enzyme as no inhibitor control. • 5. Add 20 μL of the compound of interest from the dilution plate prepared in step 2 to columns 2-10 of the assay plate where appropriate. Each sample should be tested in triplicate. Allow this to incubate for 10 minutes at room temperature, shaking the plate for the first two minutes. • 6. Add 10 μL of 20× substrate prepared in step 3 to each well and allow this to incubate for 15 minutes at room temperature, shaking the plate for the first two minutes. • 7. Read the fluorescence at λex: 380, λem: 460. (DPcore=[dAla|dSer|Gly]-[boroPro|Pro-nitrile], XXaa=alpha-amino acid)

[2] = biological target: recombinant human fibroblast activation protein (FAP) (Homo sapiens (Human), UniProt Q12884); experiment: In vitro assay fibroblast activation protein IC50 (Example 21)
Chain of recombinant human fibroblast activation protein (FAP) (Q12884 whole entry): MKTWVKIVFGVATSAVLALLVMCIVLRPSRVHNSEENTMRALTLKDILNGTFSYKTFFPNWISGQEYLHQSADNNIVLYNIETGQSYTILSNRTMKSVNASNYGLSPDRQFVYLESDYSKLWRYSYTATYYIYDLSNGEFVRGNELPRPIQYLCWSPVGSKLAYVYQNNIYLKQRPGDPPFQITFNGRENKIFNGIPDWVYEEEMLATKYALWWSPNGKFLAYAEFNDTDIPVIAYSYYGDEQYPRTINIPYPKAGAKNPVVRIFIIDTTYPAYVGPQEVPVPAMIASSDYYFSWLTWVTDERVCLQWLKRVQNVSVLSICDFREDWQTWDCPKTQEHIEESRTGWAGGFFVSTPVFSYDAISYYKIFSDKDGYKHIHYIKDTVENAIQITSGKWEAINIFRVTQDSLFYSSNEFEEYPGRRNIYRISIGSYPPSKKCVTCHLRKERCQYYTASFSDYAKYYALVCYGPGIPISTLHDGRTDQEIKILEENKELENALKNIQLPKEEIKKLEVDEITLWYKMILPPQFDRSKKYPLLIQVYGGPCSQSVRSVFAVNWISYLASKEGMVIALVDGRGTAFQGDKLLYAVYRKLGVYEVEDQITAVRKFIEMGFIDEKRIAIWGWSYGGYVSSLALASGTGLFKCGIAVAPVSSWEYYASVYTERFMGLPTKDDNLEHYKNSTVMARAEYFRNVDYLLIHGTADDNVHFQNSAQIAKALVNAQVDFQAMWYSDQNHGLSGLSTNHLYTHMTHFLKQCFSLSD
Experimental: as §1, §2

[3] = biological target: recombinant human dipeptidyl peptidase IV (DPPIV) (Homo sapiens (Human), UniProt P27487); experiment: In vitro assay dipeptidyl peptidase IV IC50 (Example 21)
Chain of recombinant human dipeptidyl peptidase IV (DPPIV) (P27487 whole entry): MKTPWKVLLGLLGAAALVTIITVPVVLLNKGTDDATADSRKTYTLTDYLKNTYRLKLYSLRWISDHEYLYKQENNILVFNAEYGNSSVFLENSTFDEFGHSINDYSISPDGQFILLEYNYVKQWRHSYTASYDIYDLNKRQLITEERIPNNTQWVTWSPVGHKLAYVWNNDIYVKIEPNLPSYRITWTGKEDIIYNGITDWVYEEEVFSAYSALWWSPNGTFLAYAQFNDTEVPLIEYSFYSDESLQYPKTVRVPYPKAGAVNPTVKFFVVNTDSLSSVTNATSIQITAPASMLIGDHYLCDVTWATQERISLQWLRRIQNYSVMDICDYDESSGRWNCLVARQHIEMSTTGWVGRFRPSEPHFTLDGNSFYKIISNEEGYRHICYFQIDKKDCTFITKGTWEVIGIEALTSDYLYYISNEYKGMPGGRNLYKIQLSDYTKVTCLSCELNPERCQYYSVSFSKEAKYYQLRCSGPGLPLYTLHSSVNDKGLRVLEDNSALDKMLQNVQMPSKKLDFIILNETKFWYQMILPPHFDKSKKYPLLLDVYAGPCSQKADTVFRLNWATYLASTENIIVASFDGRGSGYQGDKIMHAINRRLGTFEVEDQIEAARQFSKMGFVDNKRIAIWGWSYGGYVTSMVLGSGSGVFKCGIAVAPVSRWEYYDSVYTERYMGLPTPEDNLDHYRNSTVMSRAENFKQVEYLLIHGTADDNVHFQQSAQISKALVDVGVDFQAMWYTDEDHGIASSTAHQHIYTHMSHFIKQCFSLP
Experimental: as §1, §2

recombinant human FAP = recombinant human FAP (Homo sapiens (Human), UniProt Q12884); experiment: In vitro enzyme IC50 assay, FAP (Example 16); settings: 10 min preincubation at 25° C.; Z-Gly-Pro-AMC
Chain of recombinant human FAP (Q12884 whole entry): as the sequence (Q12884 whole entry) above
Experimental: Biological Materials: For the in vitro IC50 determination assays, recombinant human DPPIV, DPP9, FAP, and PREP were purchased from R&D Systems, and DPP8 was from Biomol International. Buffer systems used were A (25 mM Tris, pH 8.0), B (50 mM Tris, pH 7.5), C (50 mM Tris, 140 mM NaCl, pH 7.5), D (25 mM Tris, 250 mM NaCl, pH 7.5), and E (20 mM Tris, 20 mM KCl, pH 7.4). […] Substrate Specificity Assay. Peptide libraries (0.21 mM) were incubated for 24 h with 1 nM FAP in buffer E at 37° C. The reaction was quenched by the addition of 1.2 N HCl. The samples were analyzed by reverse-phase HPLC-MS on a Thermo Finnigan LCQ Duo, quantifying the peaks in the resulting base peak chromatograms. Relative cleavage values were determined by comparing the postquench abundance of intact peptides to those in the initial library.
In Vitro Enzyme IC50 Assays. Enzymatic activity of DPPIV, DPP8, DPP9, FAP, and PREP was measured at 25° C. on a Molecular Devices M2e multidetection microtiter plate reader, monitoring the fluorescence at an excitation wavelength of 380 nm and an emission wavelength of 460 nm. The substrate was either H-Gly-Pro-AMC for the DPPIV, DPP8, and DPP9 assays or Z-Gly-Pro-AMC for the FAP and PREP assays. […] The final enzyme concentrations were 0.1, 0.8, 0.4, 1.2, and 0.6 nM for DPPIV, DPP8, DPP9, FAP, and PREP, respectively. […] Those prepared in pH 2.0 solution were preincubated at 25° C. for 4 h prior to dilution. Immediately prior to the commencement of the experiment, the 100 mM stocks were further diluted to 10^-3 M in the appropriate assay buffer, from which 1:10 serial dilutions were prepared. All inhibitors were tested in triplicate.

Row | Compound | IC50 ([1]; Z-Gly-Pro-AMC, 0.6 nM enzyme) [nM] | IC50 ([2]; Z-Gly-Pro-AMC, 1.2 nM enzyme) [nM] | IC50 ([3]; Gly-Pro-AMC, 0.1 nM enzyme) [nM] | IC50 (recombinant human FAP) [nM] | IC50 [1] [nM] | IC50 [2] | IC50 [3] [nM]
1 | CC(C)[C@H](NC(=O)CNC(=O)CC[C@@H]1C(=O)[O][Lu]23[O]C(=O)CN4CCN(CCN1CCN(CC4)CC(=O)[O]2)CC(=O)[O]3)C(=O)N[C@H](C)C(=O)N1CCC[C@H]1B(O)O [6795DLU] | 10000 | 60 | > 100000 |  |  |  | 
2 | CC(C)[C@H](NC(=O)CNC(=O)CNC(=O)CN1CCCN(CC(=O)O)CCN(CC(=O)O)CCCN(CC(=O)O)CC1)C(=O)N[C@@H](C)C(=O)N1CCC[C@H]1B(O)O [6522L] (X2-GGVA-boroPro) | 7.6 | > 100000 | 3400 |  |  |  | 
3 | C[C@@H](NC(=O)c1ccc(NNC(=O)CCCCCNC(=O)CN2CCN(CC(=O)O)CCN(CC(=O)O)CCN(CC(=O)O)CC2)cc1)C(=O)N1CCC[C@H]1B(O)O [6486S, DOTA-EACA-HyBz-D-Ala-boroPro] |  |  |  | 1.7 |  |  | 
4 | C[C@@H](NC(=O)c1ccc(NNC(=O)CN2CCN(CC(=O)O)CCN(CC(=O)O)CCN(CC(=O)O)CC2)nc1)C(=O)N1CCC[C@H]1B(O)O [compound 4536] |  |  |  |  | 50 | 9 nM | 84000
5 | C[C@@H](NC(=O)c1ccc(NNC(=O)CCCCCNC(=O)CN2CCN3CCN4CCN(CC2)CC(=O)[O][Ga]([O]OC(=O)C3)[O]C(=O)C4)cc1)C(=O)N1CCC[C@H]1B(O)O [6486 GA] |  |  |  |  | 4700 | 81 nM | > 100000
6 | CC(C)[C@H](NC(=O)CNC(=O)CC[C@H](C(=O)O)N1CCN(CC(=O)O)CCN(CC(=O)O)CCN(CC(=O)O)CC1)C(=O)N[C@H](C)C(=O)N1CCC[C@H]1B(O)O [6795D] | 7450 | 17 | > 100000 |  |  |  | 
7 | C[C@@H](NC(=O)c1ccc(NC(=O)CN2CCN3CCN(CC(=O)O)CCN(CC2)CC(=O)[O][Cu][O]C(=O)C3)cc1)C(=O)N1CCC[C@H]1B(O)O [6572CU, DOTA[Cu(II)]-PABA-D-Ala-boroPro] |  |  |  | 12.6 |  |  | 
8 | C[C@@H](NC(=O)c1ccc(NNC(=O)CCCCC[N+]2=C(/C=C/C3=C(Oc4ccc(S(=O)(=O)O)cc4)C(=C/C=C4/N(CCCCS(=O)(=O)O)c5ccc(S(=O)(=O)O)cc5C4(C)C)/CCC3)C(C)(C)c3cc(S(=O)(=O)O)ccc32)nc1)C(=O)N1CCC[C@H]1B(O)O [4613 B] |  |  |  |  | 390 | 8.8 nM and 10 nM | > 100000
9 | C[C@@H](NC(=O)c1ccc(CNC(=O)CN2CCN3CCN4CCN(CC2)CC(=O)[O][Lu]([O]C(=O)C3)[O]C(=O)C4)nc1)C(=O)N1CCC[C@H]1B(O)O [6556LU] |  |  |  |  | 895 | 2.9 nM | 
10 | C[C@@H](NC(=O)c1ccc(NC(=O)CN2CCN3CCN4CCN(CC2)CC(=O)[O][Ga]([O]C(=O)C3)[O]C(=O)C4)cc1)C(=O)N1CCC[C@H]1B(O)O [6572GA] |  |  |  |  | 234 | 25 nM | 
11 | CC(C)[C@H](NC(=O)CNC(=O)CNC(=O)CN1CCN2CC(=O)O[C]3(CN4CCN5CC(=O)O[C](C1)(C5)[Ga]3[O]C(=O)C4)C2)C(=O)N[C@H](C)C(=O)N1CCC[C@H]1B(O)O (stereo partly drawn) [6522GA-02] (X4-GGV[dA]-boroPro) | 19000 | 575 | > 100000 |  |  |  | 
12 | C[C@@H](NC(=O)[C@H]1CC[C@H](CNC(=O)CN2CCN3CCN4CCN(CC2)CC(=O)[O][Lu]([O]C(=O)C3)[O]C(=O)C4)CC1)C(=O)N1CCC[C@H]1B(O)O [6952 LU] | 21000 | 14 | > 100000 |  |  |  | 
13 | C[C@@H](NC(=O)[C@H]1CC[C@H](CNC(=O)CN2CCN3CCN4CCN(CC2)CC(=O)[O][Ga]([O]C(=O)C3)[O]C(=O)C4)CC1)C(=O)N1CCC[C@H]1B(O)O [6952 GA] | 50000 | 87 | 80000 |  |  |  | 
